Tests used:
HT1080 cells = assay type: cell-based, human
uPA = uPA (Homo sapiens, UniProt P00749); conditions: cited from earlier work
HeLa cells = assay type: cell-based, human
[1] = tested on: human cervix adenocarcinoma HeLa cells; assay type: cell-based

CNC(=O)[C@H](Cc1c[nH]c2ccccc12)NC(=O)[C@@H](CC(=O)NO)CC(C)C [GM6001]
protection of HT1080 cells against WT-PA plus FP59 (HT1080 cells): did not protect | protection of HT1080 cells against challenge with PA-L1 and PA-L2 plus FP59 (HT1080 cells): conferred clear protection

CNC(=O)[C@@H](NC(=O)[C@H](CC(C)C)[C@H](O)C(=O)NO)C(C)(C)C [BB-2516, Marimastat]
protection of HT1080 cells against WT-PA plus FP59 (HT1080 cells): did not protect | protection of HT1080 cells against challenge with PA-L1 and PA-L2 plus FP59 (HT1080 cells): conferred clear protection

PGSGKSA
uPA:tPA selectivity (uPA): 121

tranexamic acid [tranexainic acid]
effect on activation of pro-uPA by HeLa cells (HeLa cells): strongly inhibited | effect on binding/processing (activation) of PrAg-U2 on the HeLa cell surface (HeLa cells): strongly inhibited | effect on processing/activation of native PrAg by cells (HeLa cells): not

PQRGRSA
uPA:tPA selectivity (uPA): 0.005

PGSGRSA
uPA:tPA selectivity (uPA): 20

Aprotinin
effect on killing of HeLa cells by PrAg-U2 plus FP59 [1]: protected | effect on killing of HeLa cells by native PrAg plus FP59 [1]: had no effect

PCPGRVVGG
uPA:tPA selectivity (uPA): 3.0

SGRSA
cleavage by uPA, times more efficiently than the physiological cleavage site present in plasminogen (uPA): 1363 fold | uPA:tPA selectivity (uPA): 20

— patent publication US20050123476A1 (priority 2001, published 2005)
